Results reported in patent US10184115B2, “Mutated cellobiose dehydrogenase with increased substrate specificity” (DIRECTSENS GMBH, priority 2012, dated 2019).

Target: T1, Myriococcum thermophilum cellobiose dehydrogenase (CDH, SEQ ID NO: 1) variant R622N (Thermothelomyces myriococcoides, UniProt A9XK88, R622N)
T1 sequence (A9XK88 22-828 R622N): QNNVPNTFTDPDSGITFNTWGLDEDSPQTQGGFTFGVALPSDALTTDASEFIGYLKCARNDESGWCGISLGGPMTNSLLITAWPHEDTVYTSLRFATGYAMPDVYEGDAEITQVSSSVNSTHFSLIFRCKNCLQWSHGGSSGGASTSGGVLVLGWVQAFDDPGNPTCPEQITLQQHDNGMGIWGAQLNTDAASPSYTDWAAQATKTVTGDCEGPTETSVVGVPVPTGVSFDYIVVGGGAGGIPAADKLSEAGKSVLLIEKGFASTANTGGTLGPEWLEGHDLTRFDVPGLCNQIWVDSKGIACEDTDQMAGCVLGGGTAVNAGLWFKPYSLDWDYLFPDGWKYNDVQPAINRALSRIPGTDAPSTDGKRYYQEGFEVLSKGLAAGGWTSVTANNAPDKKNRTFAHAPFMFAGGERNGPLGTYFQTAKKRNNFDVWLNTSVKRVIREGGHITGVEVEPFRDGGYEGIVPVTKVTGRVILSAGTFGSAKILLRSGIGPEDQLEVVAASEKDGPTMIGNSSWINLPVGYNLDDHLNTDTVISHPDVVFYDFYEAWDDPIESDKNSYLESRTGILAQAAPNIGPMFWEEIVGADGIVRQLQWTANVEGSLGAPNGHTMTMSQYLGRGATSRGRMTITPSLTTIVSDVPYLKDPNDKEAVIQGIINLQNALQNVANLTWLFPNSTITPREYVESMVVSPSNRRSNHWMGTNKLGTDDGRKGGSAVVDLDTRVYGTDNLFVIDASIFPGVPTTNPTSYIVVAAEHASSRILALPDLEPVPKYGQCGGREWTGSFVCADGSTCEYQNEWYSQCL
Assay: Steady-state kinetics, DCIP assay: M. thermophilum CDH R622N
Assay type: biochemical
Conditions: apparent, pH 4.5, 30° C.
Protocol: Enzyme activity was assayed at 30° C. using either the DCIP (Karapetyan et al., 2005 Journal of Biotechnology 121: 34-48) or cytochrome c (Canevascini et al., 1991, European Journal of Biochemistry 198: 43-52) as electron acceptor. […] Stock solutions of carbohydrates used for kinetic measurements were prepared in the respective buffer and allowed to stand overnight for mutarotation, while stock solutions of electron acceptors were prepared in water and immediately used. The reaction stoichiometry is 1 for the two-electron acceptor DCIP (1 mole of DCIP reduced per mole of carbohydrate oxidized), but 2 for the one-electron acceptor cytochrome c. Kinetic constants were calculated by fitting the observed data to the Henri-Michaelis-Menten equation or to the adapted model for substrate inhibition using nonlinear least-squares regression and the program SigmaPlot (Systat Software, San Jose, Calif., USA). […]
Recombinant wild-type CDH as well as variants were produced in 1 L baffled flasks. […] Increase in activity was monitored using the DCIP and the cytochrome c enzyme assays. […]
The sample was loaded on a 20 mL PHE Sepharose FF column (HR26/20) equilibrated with 50 mM Na-acetate buffer pH 5.5 containing 20% ammonium sulfate. […] Fractions were tested for CDH activity and pooled according to the highest Reinheitszahl (RZ, calculated from the absorbance ratio 420 nm/280 nm). […]

## OC[C@H]1O[C@H](O[C@H]2[C@H](O)[C@@H](O)C(O)O[C@@H]2CO)[C@H](O)[C@@H](O)[C@@H]1O (stereo partly shown) [Maltose, maltose]
  kcat/KM: 5.2 M⁻¹ s⁻¹
